Consider eight compounds from patent US6083964A, “Optical resolution of racemic aminoalkylpyridine anticonvulsants and (+) aminoalkylpyridine enantiomers as highly potent orally effective anticonvulsant drugs and excitatory amino acid antagonists” (K and K Biosciences, Inc., priority 1999, dated 2000).

Read-outs that look alike come from different tables or passages of the source.

The test system of data set [1] is neurotoxicity (rotorod ataxia) in mice. The data set is described as follows: Neurotoxicity, rotorod ataxia test, mice, i.p. The conditions noted are these: mouse, in vivo, ip. Further details: species or system mouse (male Carworth Farms #1). The method, then: (§1) Neurotoxicity is determined by the rotorod ataxia test in mice and by the positional sense test and gait and stance test in the rat. The following Table 2 presents the results of these anticonvulsant tests with respect to several (+) and (-) AAP enantiomeric compounds derived from optical resolution of racemic AAPs of the present invention. This Table 2 identifies the specific compounds tested by their chemical name and provides the test model, the route of administration, the animal species used, and the anticonvulsant activity and toxicity in terms of ED50 and TD50 values, (the median effective and toxic dose respectively), when intraperitoneally administered to mice, and when orally administered to rats. In mice, i.p.: All compounds are emulsified in 0.5% methylcellulose. The solvent has been tested for anticonvulsant and toxic effects and found to introduce no significant bias into the testing of anticonvulsant activity. The compounds are administered intraperitoneally in a volume of 0.01 ml/gm to male Carworth Farms #1 mice weighing about 20 gm. All compounds are tested at least at three dose levels (30, 100 and 300 mg/kg) at 30 minutes and 4 hours after their administration. Neurotoxicity is evaluated in mice by the rotorod ataxia test. The animal is placed on a wooden rod of 1 and 1/8 diameter rotating at 6 rpm. Normal mice can remain on a rod rotating at this speed indefinitely. […] Anticonvulsant Quantification in Mice i.p.: The ED50 values are determined in the MES, scMet and rotorod ataxia test. To determine the ED50 values, five logarithmically spaced doses of the test compound are administered to animals (male Carworth Farms #1 mice) in groups of eight, to cover 0-100% protection, and the dose required to protect 50% of the animals (ED50) together with its 95% confidence limits, is determined graphically.

Data set [2] has as its system maximal electroshock seizure (MES) in rats. Kind of data set: Maximal electroshock seizure (MES) test, rats, p.o. The conditions noted are these: p.o.; for ED50: Rattus norvegicus, po, MES test, read-out: ED50; for P.I. (protective index, TD50/ED50) / % protection (lowest and highest) during 4 hour period: rat, MES; for % protection (lowest and highest) during 4 hour period: 30 mg/kg, 5 time points 0.25-4 hours, 4 rats per point. The data set is classed as in vivo, rat (Sprague-Dawley). The text has this:
(§2) The (+) AAP enantiomers obtained by optical resolution of racemic AAPs and the resulting highly orally effective anticonvulsant compositions of this invention are useful in the treatment of convulsive disorders. […] A series of (+) AAP enantiomers and (-) AAP enantiomers of this invention has been evaluated for anticonvulsant activity by the intraperitoneal (i.p.) and by the oral (p.o.) route using two standard seizure models in the mouse and in the rat, the maximal electroshock seizure (MES) test and the subcutaneous pentylenetetrazol (Metrazole) seizure threshold (scMet) test. […] The following Table 2 presents the results of these anticonvulsant tests with respect to several (+) and (-) AAP enantiomeric compounds derived from optical resolution of racemic AAPs of the present invention. This Table 2 identifies the specific compounds tested by their chemical name and provides the test model, the route of administration, the animal species used, and the anticonvulsant activity and toxicity in terms of ED50 and TD50 values, (the median effective and toxic dose respectively), when intraperitoneally administered to mice, and when orally administered to rats. The Maximal Electroshock Seizure Test (MES): Maximal electroshock seizures are elicited with a 60 Hz alternating current of 50 mA intensity in mice and about 150 mA intensity in rats (5-7 times that necessary to elicit minimal electroshock seizures), delivered for 0.2 sec via corneal electrodes. A drop of 0.9% saline is instilled in the eye prior to application of the electrodes in order to […]. Abolition of the hind limb tonic extension component of the seizure is defined as protection and results are expressed as number of animals protected/number of animals tested. The Subcutaneous Pentylenetetrazol (Metrazole) Seizure Threshold Test (scMet): A 0.5% solution of 85 mg/kg of pentylenetetrazol is administered subcutaneously in the posterior midline 30 minutes or 4 hours after drug administration to the animal. […] This species will be the subject of the complete anticonvulsant quantification test evaluation as described above, but after oral (gavage) administration of the candidate compound.
For orientation: Protection in the maximal electroshock model is a classic sign of anticonvulsant action.

Data set [3] in a line: Neurological deficit, positional sense test and gait and stance test, rats, p.o. The conditions noted are these: rat, in vivo, po. Further details: species or system rat (Sprague-Dawley). The method, then:
Neurotoxicity is determined by the rotorod ataxia test in mice and by the positional sense test and gait and stance test in the rat. The following Table 2 presents the results of these anticonvulsant tests with respect to several (+) and (-) AAP enantiomeric compounds derived from optical resolution of racemic AAPs of the present invention. This Table 2 identifies the specific compounds tested by their chemical name and provides the test model, the route of administration, the animal species used, and the anticonvulsant activity and toxicity in terms of ED50 and TD50 values, (the median effective and toxic dose respectively), when intraperitoneally administered to mice, and when orally administered to rats. […] This species will be the subject of the complete anticonvulsant quantification test evaluation as described above, but after oral (gavage) administration of the candidate compound. […] Neurological deficit in rats is examined by the positional sense test and gait and stance test. […] Inability to do so rapidly indicates a neurologic deficit. In the gait and stance test, a neurologic deficit is indicated by a circular or a zigzag gait, ataxia, abnormal spread of the legs, abnormal body posture, tremor, hyperactivity, lack of exploratory behavior, somnolence, stupor, or catalepsy.

Data set [4] has as its system maximal electroshock seizure (MES) in mice. Kind of data set: Maximal electroshock seizure (MES) test, mice, i.p. The format is in vivo, mouse (male Carworth Farms #1). The conditions noted are these: for ED50: MES test; for P.I. (protective index, TD50/ED50): MES.
Source text: as §2, with “rats. In mice, i.p.: All compounds are emulsified in 0.5% methylcellulose. The solvent has been tested for anticonvulsant and toxic effects and found to introduce no significant bias into the testing of anticonvulsant activity. The compounds are administered intraperitoneally in a volume of 0.01 ml/gm to male Carworth Farms #1 mice weighing about 20 gm. All compounds are tested at least at three dose levels (30, 100 and 300 mg/kg) at 30 minutes and 4 hours after their administration.” for “rats.”, “Anticonvulsant Quantification in Mice i.p.: The ED50 values are determined in” for “This species will be”, “MES, scMet and rotorod ataxia test. To determine the ED50 values, five logarithmically spaced doses” for “subject”, “the” for “the complete anticonvulsant quantification”, “compound are administered to animals (male Carworth Farms #1 mice) in groups of eight, to cover 0-100% protection, and the dose required to protect 50%” for “evaluation as described above, but after oral (gavage) administration”, “animals (ED50) together with its 95% confidence limits, is determined graphically.” for “candidate compound.”

Data set [5] is described as follows: Neurotoxicity, rotorod ataxia test, mice, i.p. Set-up: species or system mouse (male Carworth Farms #1). To be noted: mouse, in vivo, ip, TD50. On the procedure: as §1
For orientation: Falling from the rotarod earlier than controls is read as motor impairment.

The subject of data set [6] is maximal electroshock seizure (MES) in mice. The conditions noted are these: mouse, in vivo; cited from earlier work.
The subject of data set [7] is pentylenetetrazol (Metrazole) seizure threshold in mice. The conditions noted are these: cited from earlier work; for amounts of PTZ required to produce the endpoints (in words): mouse, in vivo.
Where [8] appears, read: Mus musculus, ip, read-out: ED50.

Broadly, the ED50 is the dose that gives a 50% effect, or the effect in half of the subjects. With `CC(Nc1ccc(Br)cc1)c1ccncc1` (single isomer, unassigned; (+)) [Compound 11, (+) N-(4-Bromophenyl)-1-(4-pyridyl)ethylamine], the TD50 in data set [1] is 133.9 mg/kg; in data set [3], more than 500 mg/kg. In addition, the ED50 in data set [2] stood at 9.3 mg/kg; in data set [4] (listed as (6) (+) Enantiomer) it was 34.7 mg/kg. Further, the “P.I. (protective index, TD50/ED50)” value in data set [2] is more than 53.7; in data set [4] (listed as (6) (+) Enantiomer), 3.9.

In the case of `CCC(Nc1ccc(Cl)cc1)c1ccncc1` (single isomer, unassigned; (+)) [Compound 7, (+) N-(4-Chlorophenyl)-1-(4-pyridyl)propylamine], in data set [5], the TD50 turned out to be 322 mg/kg. In addition, the “% protection (lowest and highest) during 4 hour period” value (“% protection” for short) in data set [2] (listed as (4) (+) Enantiomer) is given as 0-75%. Further, the “P.I. (protective index, TD50/ED50)” value in data set [4] (listed as (4) (+) Enantiomer) turned out to be 2.9. For the same compound, the ED50 in data set [4] (setting [8]) worked out at 109 mg/kg.

As for `CC(Nc1ccc(Cl)c(Cl)c1)c1ccncc1` (single isomer, unassigned; (+)) [Compound 5, (+) N-(3,4-Dichlorophenyl)-1-(4-pyridyl)ethylamine], the TD50 in data set [5] and in data set [3] was more than 500 mg/kg throughout. For the same compound, the results for the ED50 in data set [2] and in data set [4] (setting [8]) were 32.3 mg/kg and 76.1 mg/kg, respectively. Also, the “% protection” value in data set [2] (listed as (3) (+) Enantiomer) was 0-100%. Further, the “P.I. (protective index, TD50/ED50)” value is reported as more than 15.5 in data set [2] and more than 6.6 in data set [4] (listed as (3) (+) Enantiomer).

As to `CCC(Nc1ccc(Cl)c(Cl)c1)c1ccncc1` (single isomer, unassigned; (+)) [Compound 9, (+) N-(3,4-Dichlorophenyl)-1-(4-pyridyl)propylamine], in data set [5], the TD50 worked out at 279 mg/kg. Besides, the “% protection” value in data set [2] (listed as (5) (+) Enantiomer) is 0-75%. In addition, the “P.I. (protective index, TD50/ED50)” value in data set [4] (listed as (5) (+) Enantiomer) is 3.0. In addition, in data set [4] (setting [8]), the ED50 is 91.9 mg/kg.

Consider `Cc1cccc(C)c1OCC(C)N` (centres unmarked) [Mexiletine], for which the “MES test activity (in words)” value in data set [6] is on record as “potent in the MES test”. Moreover, the “seizure threshold (in words)” value in data set [7] (doses slightly above the MES ED50 in mice) is recorded as “lowers seizure threshold at doses slightly above the MES ED50 in mice”.

In the case of `CCCC(CCC)C(=O)O` [valproic acid], the “amounts of PTZ required to produce the endpoints (in words)” value (“amounts of PTZ required” for short) in data set [7] is listed as “increase the amounts of PTZ required to produce the above endpoints”.

For `CCC1(c2ccccc2)C(=O)NC(=O)NC1=O` [phenobarbital], the “amounts of PTZ required” value in data set [7] is “increase the amounts of PTZ required to produce the above endpoints”.

Take `CCC1(C)CC(=O)NC1=O` (centres unmarked) [ethosuximide]: the “amounts of PTZ required” value in data set [7] is listed as “increase the amounts of PTZ required to produce the above endpoints”.
